Laboratory results published in EP0138995B1, “REGULATION OF ENZYMES WHICH UTILIZE TETRAHYDROBIOPTERIN OR TETRAHYDROFOLATE COFACTORS WITH 6, 6-DISUBSTITUTED-TETRAHYDROPTERIDINES” (South Alabama Medical Science Foundation, priority 1983, dated 1984).
Read-outs that look alike come from different tables or passages of the source.

Columns and labels:
[1] = biological target: T1, Beef Liver Dihydropteridine Reductase (Bos taurus, UniProt Q3T0Z7); experiment: Quinoid dihydropterin as substrate for dihydropteridine reductase (beef liver); format: biochemical; conditions: substrate produced by Peroxidase + H2O2
T1 construct: from tissue; host or cells: beef liver
T1 sequence (Q3T0Z7 1-242): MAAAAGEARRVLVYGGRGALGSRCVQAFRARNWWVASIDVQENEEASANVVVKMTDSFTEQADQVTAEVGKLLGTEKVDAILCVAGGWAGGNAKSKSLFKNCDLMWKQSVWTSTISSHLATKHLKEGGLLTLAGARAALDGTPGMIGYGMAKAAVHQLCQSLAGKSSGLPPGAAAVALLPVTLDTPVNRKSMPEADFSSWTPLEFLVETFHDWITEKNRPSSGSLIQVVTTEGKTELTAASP
Method: (§1) The quinoid was generated from 6,6-Me₂PH₄, as outlined previously. […] Peroxidase (6 units/ml final volume) was temperature equilibrated in 0.1 M Tris·HCl, pH 7.4, at 27° for 5 minutes. H₂O₂ (1.2 mM final concentration) was then added, followed by 6,6-Me₂PH₄. […] At 5 minutes, 6,6-Me₂PH₄ was introduced and monitored at 340 nm. […] Reaction was then initiated with dihydropteridine reductase (0.01 units/ml). Rates were calculated from the enzyme dependent decrease in O.D. at 340 nm, using an extinction coefficient of 9.8 for the chemically synthesized substrate and 6.2 for the peroxidase- and phenylalanine-hydroxylase-containing reactions in which the pterin is maintained in the quinoid form.

[2] = biological target: T2, phenylalanine hydroxylase (Rattus norvegicus, UniProt P04176); experiment: Inhibition of phenylalanine hydroxylase by dihydropterins; format: biochemical; conditions: competitive inhibition; 6-MePH4 as cofactor 0.05 mM to 0.3 mM; read-out: apparent Ki
T2 construct: from tissue
T2 sequence (P04176 1-453): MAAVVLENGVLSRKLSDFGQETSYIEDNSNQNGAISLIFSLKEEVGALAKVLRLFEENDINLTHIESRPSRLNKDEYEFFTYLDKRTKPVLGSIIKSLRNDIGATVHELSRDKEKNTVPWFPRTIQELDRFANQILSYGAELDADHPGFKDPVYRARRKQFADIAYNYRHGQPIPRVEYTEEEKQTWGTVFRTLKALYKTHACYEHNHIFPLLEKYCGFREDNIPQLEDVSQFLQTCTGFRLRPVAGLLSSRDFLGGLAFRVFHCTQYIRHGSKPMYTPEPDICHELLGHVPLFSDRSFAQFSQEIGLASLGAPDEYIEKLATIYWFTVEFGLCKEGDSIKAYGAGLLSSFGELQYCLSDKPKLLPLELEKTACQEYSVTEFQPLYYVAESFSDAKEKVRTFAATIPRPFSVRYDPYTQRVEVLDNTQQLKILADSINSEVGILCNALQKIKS
Method: Measurements were made under standard assay conditions with cofactor concentration varied between 0.05 and 0.3 mM. Stock solutions of 6,6-Me₂PH₂ were in 0.1 M assay buffer.
Standard assay conditions, with 6-MePH₄ as cofactor over a range of 0.05 mM to 0.3 mM, were employed.

[3] = Rate of air oxidation of 6,6-Me2PH4; format: physicochemical; conditions: 0.1 M Tris·HCl, pH 7.4 at 27°
Method: Stability. The rate of air oxidation of 6,6-Me₂PH₄ was measured in 0.1 M Tris·HCl, pH 7.4 at 27°, i.e., enzyme assay conditions. […] This is similar to the constant previously determined for 6,7-Me₂PH₄.

[4] = biological target: T3, Rat Liver Phenylalanine Hydroxylase (Rattus norvegicus, UniProt P04176); experiment: Phenylalanine hydroxylase cofactor assay (cofactor consumption and tyrosine formation); format: biochemical; conditions: for 6,6-Me2PH4 oxidized: 2-3 minutes, no regenerating system; for 6,6-Me2PH4 tyrosine: ratio cofactor oxidized to tyrosine produced; for Relative Vmax: relative to l-BH4 = 1.0
T3 construct: Cofactor for Rat Liver Phenylalanine Hydroxylase; from tissue; host or cells: rat liver
T3 sequence (P04176 1-453): T2 sequence (P04176 1-453)
Method: The 6,6-dimethyl substituted tetrahydropterin was tested for cofactor activity in a standard phenylalanine hydroxylase assay in which both cofactor consumption and tyrosine formation were monitored. […] An apparent Michaelis constant was determined at 1 mM phenylalanine and atmospheric oxygen with concentrations of 6,6-Me₂PH₄ ranging from 0.02-0.3 mM. The effect of a second methyl at the 6-position slightly increases the affinity for phenylalanine hydroxylase, since the apparent Km was two-thirds to three-quarters that of 6-methyl and 6,7-dimethyltetrahydropterin (Table IV). […] The maximum velocity of the reaction with 6,6-Me₂PH₄ is similar to that with the 6,7-dimethyl compound and about 6 times slower than with the natural cofactor (Table IV).

[5] = Preliminary in vivo testing: brain concentration after intraperitoneal injection; conditions: mice, intraperitoneally, 0.1 µmole/g body weight
Method: Preliminary in vivo testing of 6,6-disubstituted pteridines has been conducted. 6,6-Dimethyltetrahydropterin was injected intraperitoneally into mice at a dose rate of 0.1 µmole/g body weight. Maximum brain concentration was reached about one hour after injection and was more than 30 times higher than the maximum level reached by tetrahydrobiopterin injected in a similar manner.

[6] = cited from earlier work
[7] = cited from earlier work; remark: listed apart in the source
[8] = biological target: T4, Sheep Liver Dihydropteridine Reductase (Ovis aries, UniProt A0ACI6QPJ5); experiment: Quinoid dihydropterin as substrate for dihydropteridine reductase (sheep liver); format: biochemical; conditions: substrate produced by Peroxidase + H2O2
T4 sequence (A0ACI6QPJ5 46-254): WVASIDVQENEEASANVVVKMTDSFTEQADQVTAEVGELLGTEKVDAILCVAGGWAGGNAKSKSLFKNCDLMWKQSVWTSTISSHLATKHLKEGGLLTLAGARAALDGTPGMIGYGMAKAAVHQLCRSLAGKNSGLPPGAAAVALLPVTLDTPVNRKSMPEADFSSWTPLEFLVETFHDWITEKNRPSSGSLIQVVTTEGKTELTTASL
Method: as §1, with “6,6-Me₂PH₄. Conversion to q-6,6-Me₂PH₂, monitored at 340 nm, was complete within a few seconds. • (iii) Generation by phenylalanine hydroxylase:” for “6,6-Me₂PH₄.”, “nm. Conversion of 6,6-Me₂PH₄ to quinoid dihydropterin was complete in 1-7 minutes, depending on the concentration.” for “nm.”, “form. […] This Km was obtained regardless of the method of generation of the quinoid dihydropterin. The Vmax's were also the same for the dihydropteridine reductase catalyzed reduction of quinoid generated by any of the three methods (Table VI). Thus, the quinoid products of each procedure appear to behave equally.” for “form.”

[9] = biological target: T3, Rat Liver Phenylalanine Hydroxylase; conditions: data from the literature (footnotes c, d), cited from earlier work
[10] = cited from earlier work; for concentration: read-out: blood level
[11] = cited from earlier work; remark: listed apart in the source
[12] = rats, 125 mg BH4/kg intravenously, cited from earlier work
[13] = 0.2 mM cofactor, l-BH4: sigmoidal curve, Hill coefficient = 2, read-out: Km' for Phenylalanine
[14] = 1 mM phenylalanine, atmospheric oxygen, 0.1 M Tris·HCl, pH 7.4, 27°C, read-out: Km' for Cofactor

CC1(c2ccccc2)CNC2=NC(N)=NC(=O)C2=N1 (stereo not shown) [Compound 6-Ph-6-MePH2, 2-Amino-4-hydroxy-6-methyl-6-phenyl-quinoid-dihydro-pteridine]
Relative Vmax Beef [1]: 0.6

C[C@H](O)[C@H](O)C1=Nc2c(nc(N)[nH]c2=O)NC1 [7,8-dihydrobiopterin, reference compound]
Ki [2]: 50 µM

CC1(C)CNc2nc(N)[nH]c(=O)c2N1 [6,6-Me2PH4, 6,6-Dimethyltetrahydropterin]
half-life [3]: 23 min | pseudo first order rate constant of air oxidation [3]: 0.03 min⁻¹ | coupling of the reaction (tyrosine formed per cofactor molecule consumed) [4]: completely coupled reaction | maximum velocity, times slower than with the natural cofactor [4]: about 6 | Tyrosine produced ([4]; Initial [6,6-Me2PH4] 0.01 mM): 4.27 nmol | 6,6-Me2PH4 oxidized ([4]; Initial [6,6-Me2PH4] 0.01 mM): 4.4 nmol | Tyrosine produced ([4]; Initial [6,6-Me2PH4] 0.03 mM): 9.77 nmol | 6,6-Me2PH4 oxidized ([4]; Initial [6,6-Me2PH4] 0.03 mM): 9.1 nmol | Tyrosine produced ([4]; Initial [6,6-Me2PH4] 0.06 mM): 12.57 nmol | 6,6-Me2PH4 oxidized ([4]; Initial [6,6-Me2PH4] 0.06 mM): 11.76 nmol | Tyrosine produced ([4]; Initial [6,6-Me2PH4] 0.1 mM): 19.25 nmol | 6,6-Me2PH4 oxidized ([4]; Initial [6,6-Me2PH4] 0.1 mM): 21.18 nmol | 6,6-Me2PH4 tyrosine ([4]; Initial [6,6-Me2PH4] 0.01 mM): 1.03 | 6,6-Me2PH4 tyrosine ([4]; Initial [6,6-Me2PH4] 0.03 mM): 0.93 | 6,6-Me2PH4 tyrosine ([4]; Initial [6,6-Me2PH4] 0.06 mM): 0.94 | 6,6-Me2PH4 tyrosine ([4]; Initial [6,6-Me2PH4] 0.1 mM): 1.10 | Relative Vmax [4]: 0.17 | maximum brain concentration, times higher than the maximum level reached by tetrahydrobiopterin [5]: more than 30 | time after injection at which maximum brain concentration was reached [5]: about one

CC(O)C(O)C1=Nc2c(nc(N)[nH]c2=O)NC1 (stereo not shown) [Dihydrobiopterin]
time normal levels of phenylalanine were maintained ([6]; orally 2.5 mg/kg): 24 h

C[C@H](O)C(=O)C1=Nc2c(nc(N)[nH]c2=O)NC1 [sepiapterin]
time normal levels of phenylalanine were maintained ([6]; orally 0.6 mg-1.25 mg/kg): 24 h | effect on neurological symptoms ([7]; 2.75 mg (p.o.)/kg, one patient): shown to have an effect

CC1N=C2C(=O)N=C(N)N=C2NC1C (stereo not shown) [6,7-Me2PH2]
Relative Vmax Sheep [8]: 2

quinoid dihydrobiopterin [dihydro-biopterin (natural isomer), reference compound]
Km [1]: 0.004 mM | Relative Vmax Beef [1]: 0.5 | Km [8]: 0.004 mM | Relative Vmax Sheep [8]: 0.5

CC1Nc2nc(N)[nH]c(=O)c2NC1C (stereo not shown) [6,7-Me2PH4, 6,7-dimethyltetrahydropterin]
Km [9, 13]: 800 ± 100 µM | Km [9, 14]: 90 ± 10 µM | Relative Vmax ([9]; relative to l-BH4 = 1.0): 0.17

CC1CNc2nc(N)[nH]c(=O)c2N1 (stereo not shown) [Compound 6-MePH4, 6-methyltetrahydropterin]
Relative Vmax [4]: 0.77 | share of striatal 6-MePH4 remaining in the fully reduced tetrahydro-form ([10]; 2 hrs after injection, Kapatos and Kaufman): over 85% | share of 6-MePH4 in the brain in the reduced form ([10]; Curtius et al.): 30% | efficiency of entry into the brain, times that of an equal dose of BH4 ([10]; rats, 0.11 µmole (i.p.)/gm body weight): up to 10 | brain level ([10]; rats, 0.11 µmole (i.p.)/gm, at 30 minutes, maintained until 2 hours): 2 nmoles/g brain | brain level as share of that expected assuming equal body distribution ([10]; rats, 0.11 µmole (i.p.)/gm): 2% | concentration ([10]; rats, i.p., at 30 minutes): 40 µM | concentration ([10]; rats, i.p., by 2 hrs): 10 µM | half life for retention by the brain ([10]; rats, i.p.): 180 min | half life for retention by the plasma ([10]; rats, i.p.): 42 min | CSF level ([11]; at 9.5 hours after intravenous injection of 20 mg/kg): 0.06 µg/mL | CSF level ([11]; three hours after intravenous injection of 20 mg/kg, 180 min): 0.45 µg/mL | CSF level as share of that expected on the basis of equal body distribution ([11]; three hours after intravenous injection of 20 mg/kg): 2.2% | CSF 5-hydroxyindoleacetic acid ([11]; two hours after 8 mg/kg, from 6 before, normal = 30): 18 ng/mL | CSF homovanillic acid ([11]; two hours after 8 mg/kg, from 9 before, normal 132): 22 ng/mL

C[C@H](O)[C@H](O)[C@H]1CNc2nc(N)[nH]c(=O)c2N1 [l-BH4, tetrahydrobiopterin]
Km [9, 13]: 170 µM | Km [9, 14]: 21 ± 3 µM | maximum increase of BH4 in the striatum ([12]; in 15 mins): 30% | striatal increase as share of the concentration administered assuming uniform body distribution [12]: 0.2% | time of return of striatal BH4 to normal [12]: less than 2 hours | increase in CSF BH4 ([7]; 2 mg BH4 (i.v.)/kg/day for 3 days, 1 day after the last injection, BH4-synthesis-deficient child): no increase | CSF BH4 ([7]; 2.5 hours after oral treatment, in two equal doses, from 2 ng before): 44 ng/mL | CSF BH4 as share of that expected assuming uniform body distribution and retention ([7]; 2.5 hours after oral treatment): 0.22%
